Measured values from the NIST ThermoML archive (doi:10.1021/je600554h).

Experiment: xn = mol fraction of the nth substance listed
Settings: 100 kPa, Liquid; for viscosity: Capillary tube (Ostwald / Ubbelohde) method

COC(C)(C)C [2-methoxy-2-methylpropane] + CCCCCCCC
Settings | mass density [kg/m3] | viscosity [mPa·s]
273.15 K, x1 = 0.1019 | – | 0.685
273.15 K, x1 = 0.1059 | 721.15 | –
273.15 K, x1 = 0.2123 | 724.203 | –
273.15 K, x1 = 0.2189 | – | 0.651
273.15 K, x1 = 0.3019 | 727.065 | –
273.15 K, x1 = 0.3026 | – | 0.622
273.15 K, x1 = 0.4029 | – | 0.597
273.15 K, x1 = 0.4099 | 730.835 | –
273.15 K, x1 = 0.4995 | – | 0.57
273.15 K, x1 = 0.5053 | 734.583 | –
273.15 K, x1 = 0.6005 | 738.614 | –
273.15 K, x1 = 0.6099 | – | 0.549
273.15 K, x1 = 0.6934 | 742.992 | –
273.15 K, x1 = 0.7072 | – | 0.525
273.15 K, x1 = 0.7967 | 748.318 | –
273.15 K, x1 = 0.7981 | – | 0.494
273.15 K, x1 = 0.8941 | – | 0.472
273.15 K, x1 = 0.8975 | 754.329 | –
278.15 K, x1 = 0.1019 | – | 0.638
278.15 K, x1 = 0.1059 | 717.106 | –
278.15 K, x1 = 0.2123 | 720.082 | –
278.15 K, x1 = 0.2189 | – | 0.607
278.15 K, x1 = 0.3019 | 722.866 | –
278.15 K, x1 = 0.3026 | – | 0.583
278.15 K, x1 = 0.4029 | – | 0.559
278.15 K, x1 = 0.4099 | 726.533 | –
278.15 K, x1 = 0.4995 | – | 0.534
278.15 K, x1 = 0.5053 | 730.183 | –
278.15 K, x1 = 0.6005 | 734.106 | –
278.15 K, x1 = 0.6099 | – | 0.514
278.15 K, x1 = 0.6934 | 738.371 | –
278.15 K, x1 = 0.7072 | – | 0.492
278.15 K, x1 = 0.7967 | 743.56 | –
278.15 K, x1 = 0.7981 | – | 0.462
278.15 K, x1 = 0.8941 | – | 0.442
278.15 K, x1 = 0.8975 | 749.42 | –
283.15 K, x1 = 0.1019 | – | 0.597
283.15 K, x1 = 0.1059 | 713.046 | –
283.15 K, x1 = 0.2123 | 715.938 | –
283.15 K, x1 = 0.2189 | – | 0.568
283.15 K, x1 = 0.3019 | 718.644 | –
283.15 K, x1 = 0.3026 | – | 0.545
283.15 K, x1 = 0.4029 | – | 0.523
283.15 K, x1 = 0.4099 | 722.208 | –
283.15 K, x1 = 0.4995 | – | 0.501
283.15 K, x1 = 0.5053 | 725.756 | –
283.15 K, x1 = 0.6005 | 729.573 | –
283.15 K, x1 = 0.6099 | – | 0.483
283.15 K, x1 = 0.6934 | 733.719 | –
283.15 K, x1 = 0.7072 | – | 0.462
283.15 K, x1 = 0.7967 | 738.766 | –
283.15 K, x1 = 0.7981 | – | 0.435
283.15 K, x1 = 0.8941 | – | 0.417
283.15 K, x1 = 0.8975 | 744.471 | –
288.15 K, x1 = 0.1019 | – | 0.559
288.15 K, x1 = 0.1059 | 708.972 | –
288.15 K, x1 = 0.2123 | 711.779 | –
288.15 K, x1 = 0.2189 | – | 0.533
288.15 K, x1 = 0.3019 | 714.403 | –
288.15 K, x1 = 0.3026 | – | 0.514
288.15 K, x1 = 0.4029 | – | 0.492
288.15 K, x1 = 0.4099 | 717.859 | –
288.15 K, x1 = 0.4995 | – | 0.471
288.15 K, x1 = 0.5053 | 721.306 | –
288.15 K, x1 = 0.6005 | 725.009 | –
288.15 K, x1 = 0.6099 | – | 0.454
288.15 K, x1 = 0.6934 | 729.044 | –
288.15 K, x1 = 0.7072 | – | 0.435
288.15 K, x1 = 0.7967 | 733.942 | –
288.15 K, x1 = 0.7981 | – | 0.41
288.15 K, x1 = 0.8941 | – | 0.393
288.15 K, x1 = 0.8975 | 739.489 | –
293.15 K, x1 = 0.1019 | – | 0.525
293.15 K, x1 = 0.1059 | 704.884 | –
293.15 K, x1 = 0.2123 | 707.601 | –
293.15 K, x1 = 0.2189 | – | 0.501
293.15 K, x1 = 0.3019 | 710.139 | –
293.15 K, x1 = 0.3026 | – | 0.483
293.15 K, x1 = 0.4029 | – | 0.464
293.15 K, x1 = 0.4099 | 713.488 | –
293.15 K, x1 = 0.4995 | – | 0.445
293.15 K, x1 = 0.5053 | 716.833 | –
293.15 K, x1 = 0.6005 | 720.419 | –
293.15 K, x1 = 0.6099 | – | 0.428
293.15 K, x1 = 0.6934 | 724.332 | –
293.15 K, x1 = 0.7072 | – | 0.411
293.15 K, x1 = 0.7967 | 729.066 | –
293.15 K, x1 = 0.7981 | – | 0.388
293.15 K, x1 = 0.8941 | – | 0.372
293.15 K, x1 = 0.8975 | 734.467 | –
298.15 K, x1 = 0.1019 | – | 0.495
298.15 K, x1 = 0.1059 | 700.768 | –
298.15 K, x1 = 0.2123 | 703.393 | –
298.15 K, x1 = 0.2189 | – | 0.473
298.15 K, x1 = 0.3019 | 705.856 | –
298.15 K, x1 = 0.3026 | – | 0.455
298.15 K, x1 = 0.4029 | – | 0.439
298.15 K, x1 = 0.4099 | 709.092 | –
298.15 K, x1 = 0.4995 | – | 0.42
298.15 K, x1 = 0.5053 | 712.324 | –
298.15 K, x1 = 0.6005 | 715.799 | –
298.15 K, x1 = 0.6099 | – | 0.405
298.15 K, x1 = 0.6934 | 719.586 | –
298.15 K, x1 = 0.7072 | – | 0.388
298.15 K, x1 = 0.7967 | 724.172 | –
298.15 K, x1 = 0.7981 | – | 0.367
